# Source: patent US5602156A, “Method for inhibiting metalloproteinase expression” (The United States of America as represented by the …, priority 1994, dated 1997)
# “Also recorded” adds a separate entry of the source.
# Experiments:
# MMP-2 [1] = settings: cited from earlier work; for MMP-2 induction/inhibition: human melanoma and fibrosarcoma cells
# gelatinase activity = assay: Gelatin zymography of A2058 and HT1080 cells, compound 1 with or without TGF-β1 (results in words); type: cell-based, human; settings: TGF-β1 (5 ng/mL) alone for 48 hr
# Experimental: (§1) A2058 and HT1080 cells were incubated with compound 1 (2 μM), with or without TGF-β1 (5 ng/mL) for 24 and 48 hours prior to harvest of conditioned media. Aliquots were subjected to gelatin zymography as described in Example 1. Known concentrated conditioned medium from HT1080 cells was used for identification of the gelatinase species (92 kDa, gelatinase B/MMP-9; 72 kDa, gelatinase A/MMP-2 latent form; 65 kDa intermediate and 62 kDa activated forms of MMP-2).
# (§2) Lane 1 is the control resulting from treatment of the cells with 0.1% DMSO. Lanes 2 and 3 correspond to those cells which are treated with 2 μM compound 1 in the absence of TGF-β1 for 24 and 48 hours, respectively. Lane 4 corresponds to cells which have been treated with TGF-β1 in the absence of compound 1. Lane 5 corresponds to cells which have been treated with TGF-β1 for 48 hours with compound 1 being added to the incubation mixture for the final 24 hours. Lane 6 corresponds to cells which have been treated for 48 hours with both TGF-β1 and compound 1.
# MMP-9 = assay: Gelatin zymography of HT1080 cells, compound 1 with or without TGF-β1 (densitometry), 92 kDa; type: cell-based, human; settings: TGF-β alone (0 hr compound 1), control band = 100%
# Experimental: (§3) Conditioned media for zymogram and Western blot analysis were produced under serum-free conditions. Cells (2 million) were plated in 25 cm^2 flasks in serum-containing medium and cultured overnight. Serum-containingmedium was removed and the cell monolayers were washed twice with DMEM/ITS (DMEM containing insulin (5 μg/mL), transferrin (5 μg/mL), and selenium (5 ng/mL)). The resultant cells were fed with 3 mL of DMEM/ITS and additives as described in the Examples for two 24 hour periods. Conditioned media samples were collected at 24 hours and cells were refed with fresh DMEM/ITS containing the described additives for an additional 24 hours. Conditioned media samples were centrifuged to remove cells and debris then frozen at -20° C. until use. Freeze and thaw cycles of the conditioned media were limited to no more than two.
# (§4) A2058 human melanoma cells, human HT1080 fibrosarcoma cells, and OVCAR3 human ovarian cancer cells were incubated with increasing concentrations of compound 1 (0.2-20 μM) or DMSO control (0.05%) and subjected to gelatin zymography. Aliquots of conditioned medium (15 μL) were electrophoresed on gelatin-containing 10% PAGE gels under nonreducing but denaturing conditions. These conditions allow the different gelatin-degrading species (MMPs) to separate by size. The enzymes renature after removal of the SDS by incubation of the gel with 2.5 % Triton X-100, and degrade the gelatin substrate present in the polyacrylamide gel upon overnight incubation in low salt collagenase buffer. Bands of clearing, seen after Coomassie blue staining correspond to areas of gelatinase activity.
# as §1, §2
# (§5) *The control band was defined as 100% gelatinase activity and the other
# (§6) bands were normalized to it. Numbers reflect triplicate measurements from
# (§7) each zymogram band of representative zymograms. Standard deviations, not
# MMP-2 [2] = assay: Gelatin zymography of HT1080 cells, compound 1 with or without TGF-β1 (densitometry); type: cell-based, human; settings: TGF-β alone (0 hr compound 1), control band = 100%
# Experimental: as §3, §4, §1, §2, §5, §6, §7
# MMP-2 [3] = assay: Gelatin zymography of A2058 cells, compound 1 with or without TGF-β1 (densitometry); type: cell-based, human; settings: TGF-β1 alone (0 hr compound 1), control band = 100%
# Experimental: as §3, §4, §1, §2, §5, §6, §7
# [4] = system: interstitial collagenase, MMP-1; settings: human melanoma and fibrosarcoma cells; cited from earlier work
# [5] = system: gelatinase activity of the metalloproteinases; assay: Zymogram slices incubated with compound 1 or calcium chelators in the activating buffer (direct inhibition of enzyme); type: biochemical, human; settings: 10 mM chelator in incubation buffer; data not shown
# Experimental: See, Felder, et al., J. Pharm. Exp. Therapeut. 257:967-971 (1991) and unpublished observations by the inventors.
# Gelatin zymography was carded out using control conditioned media from A2058 cells and HT1080 cells in the absence of compound 1. Zymogram slices were incubated in low salt collagenase buffer with control (DMSO 0.1%), an inhibitory dose of compound 1 (20 μM), or the calcium chelators EGTA (10 mM) and EDTA (10 mM). […] See, Brown, et al., Cancer Res. 50:6184-6191 (1990). […] Lane 1 for each of the zymograms corresponds to A2058 while lane 2 corresponds to HT1080.
# [6] = system: gelatinase activity of the metalloproteinases; settings: EDTA in incubation buffer; shown by others; cited from earlier work
# phospholipase C-γ = settings: cited from earlier work
# arachidonic acid release = settings: cited from earlier work
# [7] = system: receptor-operated and voltage-gated calcium influx; settings: cited from earlier work
# MMP-2 [8] = assay: Gelatin zymography of conditioned media from human cancer cell lines (gelatinase activity); type: cell-based
# Experimental: as §3
# Quantitation of the effect was evaluated by laser densitometry of the resultant zymograms.
# Aliquots of conditioned medium (15 μL) were electrophoresed on gelatin-containing 10% PAGE gels under nonreducing but denaturing conditions. These conditions allow the different gelatin-degrading species (MMPs) to separate by size. […] Bands of clearing, seen after Coomassie blue staining correspond to areas of gelatinase activity.
# OVCAR3 conditioned media samples were concentrated 10-fold prior to zymography.
# Known concentrated conditioned medium from HT1080 cells was used for identification of the gelatinase species as marked in FIG. 1A: 92 kDa, gelatinase B/MMP-9; 72 kDa, gelatinase A/MMP-2 latent form; 65 kDa intermediate and 62 kDa activated forms of MMP-2. The activated form of MMP-2 results from cleavage of the amino terminal domain.
# Lane 1 corresponds to cells treated only with 0.05% DMSO as a control.
# Quantitation of the zymograms in FIGS. 1A-1C were carded out using laser densitometry.
# The effect of structural analogs on the gelatinase activity of A2058 cells was similarly evaluated.
compound,measurement,setting,value
TGF-β1: transforming growth factor-β1,production of MMP-2 by stimulation of RNA expression,MMP-2 [1]; cell type not stated,stimulate production of MMP-2 by stimulation of RNA expression
same,MMP-2 induction/inhibition,MMP-2 [1],induction of MMP-2
same,gelatinase activity,gelatinase activity,increased gelatinase activity
same,"gelatinase activity, 92 kDa",MMP-9,64%
same,"gelatinase activity, 65 + 62 kDa",MMP-2 [2],192%
same,"gelatinase activity, 72 kDa",MMP-2 [2],47%
same,"gelatinase activity, 65 + 62 kDa",MMP-2 [3],0%
same,"gelatinase activity, 72 kDa",MMP-2 [3],68%
same,MMP-1 induction/inhibition,[4],"inhibition of the interstitial collagenase, MMP-1"
"O=C(O)CN(CCN(CC(=O)O)CC(=O)O)CC(=O)O [EDTA, ethylenediamine tetraacetic acid, reference compound]",requirement for metal ion in the activation buffer,[5],confirmed the requirement for metal ion (Ca^++) in the activation buffer
same,inhibition of gelatinolytic activity,[6],inhibit gelatinolytic activity
"COc1ccc(CCCOC(Cn2ccnc2)c2ccc(OC)cc2)cc1 (stereo not shown) [Compound 2, reference compound]",tyrosine phosphorylation with activation of phospholipase C-γ,phospholipase C-γ,inhibited
same,arachidonic acid release,arachidonic acid release,inhibited
same,calcium influx inhibition,[7],inhibited; also recorded: effective inhibitor of receptor-operated calcium channels with reactivity against some voltage-gated calcium channels
same,MMP-2 activity,"MMP-2 [8]; A2058, 10 μM (FIG. 1E)",reduced MMP-2 activity
same,inhibition of MMP-2 gelatinase activity (FIG. 1),MMP-2 [8]; zymograms of FIG. 1,inhibition
"CCCCCCCCCCCCCC(=O)OC1C(C)C2(O)C(C=C(CO)CC3(O)C(=O)C(C)=CC32)C2C(C)(C)C12OC(C)=O (stereo not shown) [TPA, 12-O-tetradecanoylphorbol-13-acetate, reference compound]",MMP-2 induction/inhibition,MMP-2 [1],inhibition of MMP-2
same,MMP-1 induction/inhibition,[4],induction of MMP-1
"O=C(O)CN(CCOCCOCCN(CC(=O)O)CC(=O)O)CC(=O)O [EGTA, ethylenebis(oxyethylenenitrilo)tetraacetic acid, reference compound]",requirement for metal ion in the activation buffer,[5],confirmed the requirement for metal ion (Ca^++) in the activation buffer
